The target of experiment [1] is Protein arginine N-methyltransferase 3 (Homo sapiens, UniProt O60678). Nature of the experiment: Inhibition of human PRMT3 using H4-21peptide as substrate at 10 uM incubated for 10 mins by fluorescence based analysis relative to control.
For experiment [2], the target named is Protein arginine N-methyltransferase 1 (Homo sapiens, UniProt Q99873). Nature of the experiment: Inhibition of human PRMT1 using H4-21peptide as substrate at 10 uM incubated for 10 mins by fluorescence based analysis relative to control.
Protein arginine N-methyltransferase 1, sequence (Q99873 whole entry, looked up): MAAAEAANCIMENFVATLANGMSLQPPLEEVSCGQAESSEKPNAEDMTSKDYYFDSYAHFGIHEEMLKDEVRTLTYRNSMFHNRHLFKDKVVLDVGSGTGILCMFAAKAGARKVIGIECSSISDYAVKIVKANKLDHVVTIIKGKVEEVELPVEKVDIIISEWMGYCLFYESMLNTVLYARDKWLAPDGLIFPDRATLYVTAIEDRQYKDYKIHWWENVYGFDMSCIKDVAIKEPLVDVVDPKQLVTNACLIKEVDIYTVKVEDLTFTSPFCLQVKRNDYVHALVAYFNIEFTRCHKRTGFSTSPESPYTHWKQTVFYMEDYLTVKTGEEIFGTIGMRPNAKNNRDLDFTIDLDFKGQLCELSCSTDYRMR
For experiment [3], the target named is Protein arginine N-methyltransferase 8 (Homo sapiens, UniProt Q9NR22). As to the kind of experiment: Inhibition of human PRMT8 using Histone H4 as substrate and SAM as cofactor at 10 uM by radiometric HotSpot assay relative to control.
Protein arginine N-methyltransferase 8, sequence (Q9NR22 2-394 limits assumed): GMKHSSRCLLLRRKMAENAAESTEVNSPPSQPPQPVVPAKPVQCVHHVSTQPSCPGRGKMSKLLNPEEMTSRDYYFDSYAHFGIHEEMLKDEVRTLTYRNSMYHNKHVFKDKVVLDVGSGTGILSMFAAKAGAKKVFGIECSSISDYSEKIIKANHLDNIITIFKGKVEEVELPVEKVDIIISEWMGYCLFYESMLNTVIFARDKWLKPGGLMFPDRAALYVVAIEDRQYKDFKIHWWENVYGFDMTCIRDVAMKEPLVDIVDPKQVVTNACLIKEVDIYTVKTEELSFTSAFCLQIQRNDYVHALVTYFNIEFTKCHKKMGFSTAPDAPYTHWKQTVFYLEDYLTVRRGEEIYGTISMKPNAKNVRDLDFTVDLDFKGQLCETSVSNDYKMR
The target in experiment [4] is Protein arginine N-methyltransferase 6 (Homo sapiens, UniProt Q96LA8). Nature of the experiment: Inhibition of human PRMT6 using GST-GAR as substrate and SAM as cofactor at 10 uM by radiometric HotSpot assay relative to control.
Protein arginine N-methyltransferase 6, sequence (Q96LA8 whole entry, looked up): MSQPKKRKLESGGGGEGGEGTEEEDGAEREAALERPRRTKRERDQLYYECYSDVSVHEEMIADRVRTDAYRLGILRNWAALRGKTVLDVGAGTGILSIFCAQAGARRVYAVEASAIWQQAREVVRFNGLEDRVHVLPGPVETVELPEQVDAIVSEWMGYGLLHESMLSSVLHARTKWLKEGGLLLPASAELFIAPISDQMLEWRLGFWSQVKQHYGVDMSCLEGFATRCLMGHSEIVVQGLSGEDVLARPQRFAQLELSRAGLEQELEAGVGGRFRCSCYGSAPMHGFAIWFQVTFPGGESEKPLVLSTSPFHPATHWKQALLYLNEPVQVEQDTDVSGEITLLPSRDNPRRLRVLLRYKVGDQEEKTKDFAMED
Experiment [5] addresses T1, Histone-arginine methyltransferase CARM1 (Homo sapiens) (UniProt Q86X55).
T1 sequence (whole entry): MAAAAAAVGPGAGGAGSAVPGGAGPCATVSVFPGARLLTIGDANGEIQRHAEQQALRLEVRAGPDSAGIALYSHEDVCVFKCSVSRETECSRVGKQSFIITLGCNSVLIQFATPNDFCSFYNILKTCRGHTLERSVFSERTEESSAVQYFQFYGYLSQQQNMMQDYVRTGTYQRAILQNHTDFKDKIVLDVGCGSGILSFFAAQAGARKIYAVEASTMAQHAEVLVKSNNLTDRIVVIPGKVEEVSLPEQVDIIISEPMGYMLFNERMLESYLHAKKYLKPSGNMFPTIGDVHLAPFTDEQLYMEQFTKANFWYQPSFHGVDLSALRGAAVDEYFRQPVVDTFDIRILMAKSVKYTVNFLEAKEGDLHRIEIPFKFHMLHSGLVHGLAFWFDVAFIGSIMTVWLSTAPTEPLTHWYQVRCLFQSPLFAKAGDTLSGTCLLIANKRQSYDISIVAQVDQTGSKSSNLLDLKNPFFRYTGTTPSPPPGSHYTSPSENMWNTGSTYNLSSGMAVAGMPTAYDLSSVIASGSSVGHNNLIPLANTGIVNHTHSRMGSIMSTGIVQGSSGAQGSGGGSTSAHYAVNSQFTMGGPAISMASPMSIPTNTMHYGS
As to the kind of experiment: Inhibition of human PRMT4 using histone H3 as substrate and SAM as cofactor at 10 uM by radiometric HotSpot assay relative to control.

The structures appear in SMILES notation. Calls of active or inactive are those of the source. No cut-off for these calls is given here. Some results are limits rather than exact numbers.

Protein arginine N-methyltransferase 3, sequence (O60678 2-531 limits assumed): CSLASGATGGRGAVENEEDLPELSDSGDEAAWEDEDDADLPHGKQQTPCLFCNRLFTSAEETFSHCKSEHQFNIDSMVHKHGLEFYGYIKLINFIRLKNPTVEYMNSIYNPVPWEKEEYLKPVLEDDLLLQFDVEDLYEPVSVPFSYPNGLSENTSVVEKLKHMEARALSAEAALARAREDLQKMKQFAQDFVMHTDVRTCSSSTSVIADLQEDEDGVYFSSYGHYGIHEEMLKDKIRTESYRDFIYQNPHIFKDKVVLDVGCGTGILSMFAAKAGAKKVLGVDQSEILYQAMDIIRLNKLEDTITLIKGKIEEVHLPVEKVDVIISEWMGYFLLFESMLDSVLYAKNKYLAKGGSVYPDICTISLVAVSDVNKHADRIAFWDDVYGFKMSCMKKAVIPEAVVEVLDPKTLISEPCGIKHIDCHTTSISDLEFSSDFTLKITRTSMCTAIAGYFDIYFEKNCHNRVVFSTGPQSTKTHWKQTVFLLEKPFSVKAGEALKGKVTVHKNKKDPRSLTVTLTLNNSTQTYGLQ

For the molecule `COc1cc2nc(-c3ccccc3O)nc(NCCSC[C@H]3O[C@@H](n4cnc5c(N)ncnc54)[C@H](O)[C@@H]3O)c2cc1OC`, the inhibition (commonly the relative decrease from the control value, in per cent) was less than 30% in experiment [1] and less than 50% in experiment [3]. For the same molecule, the inhibition entry in experiment [2] was “inactive”.
As to `N=C(NCCSC[C@H]1O[C@@H](n2cnc3c(N)ncnc32)[C@H](O)[C@@H]1O)Nc1cccc(-c2ccc(C(F)(F)F)cc2)c1`, the inhibition in experiment [4] was more than 90%; in experiment [2], more than 50%; in experiment [5], more than 90%; in experiment [3] it was more than 95%.
As to `Nc1ncnc2c1ncn2[C@@H]1O[C@H](CSCCNC(=O)NCc2ccccc2Br)[C@@H](O)[C@H]1O`, the inhibition in experiment [1] is 3%; in experiment [2] it was less than 50%; in experiment [5], more than 90%; in experiment [3] it was less than 30%.
As for `Nc1ncnc2c1ncn2[C@@H]1O[C@H](CSCCCNC(=O)NCc2ccc(F)cc2)[C@@H](O)[C@H]1O`, the inhibition in experiment [1] is 3%; in experiment [2], less than 50%; in experiment [5], 27%; in experiment [3], less than 30%.
As for `N=C(NCCCSC[C@H]1O[C@@H](n2cnc3c(N)ncnc32)[C@H](O)[C@@H]1O)Nc1cccc(Br)c1`, the inhibition in experiment [4] was more than 90%; in experiment [2], more than 50%; in experiment [5], more than 90%; in experiment [3], more than 95%.
Take `Nc1ncnc2c1ncn2[C@@H]1O[C@H](CSCCNC(=O)NCc2ccc(F)cc2)[C@@H](O)[C@H]1O`: the inhibition in experiment [1] is more than 50%; in experiment [2], less than 50%; in experiment [5] it was more than 90%; in experiment [3], less than 30%.
Regarding `COc1cc2nc(-c3cccc([N+](=O)[O-])c3)nc(NCCSC[C@H]3O[C@@H](n4cnc5c(N)ncnc54)[C@H](O)[C@@H]3O)c2cc1OC`, the inhibition is less than 30% in experiment [1] and less than 50% in experiment [3]. For the same molecule, the inhibition entry in experiment [2] was “inactive”.
For the molecule `N=C(NCCCSC[C@H]1O[C@@H](n2cnc3c(N)ncnc32)[C@H](O)[C@@H]1O)Nc1cccc(-c2ccc(F)cc2F)c1`, the inhibition in experiment [4] is more than 90%; in experiment [2], more than 50%; in experiment [5], more than 90%; in experiment [3] it was more than 95%.
For `Nc1ncnc2c1ncn2[C@@H]1O[C@H](CSCCNC(=O)Nc2cccc3ccccc23)[C@@H](O)[C@H]1O`, the inhibition was 3% in experiment [1], less than 50% in experiment [2], 27% in experiment [5] and less than 30% in experiment [3].
For `N=C(NCCCSC[C@H]1O[C@@H](n2cnc3c(N)ncnc32)[C@H](O)[C@@H]1O)NCc1ccccc1`, the inhibition was more than 90% in experiment [4], more than 50% in experiment [2], more than 90% in experiment [5] and more than 95% in experiment [3].
On to `N=C(NCCCSC[C@H]1O[C@@H](n2cnc3c(N)ncnc32)[C@H](O)[C@@H]1O)Nc1cccc(-c2cncnc2)c1`, for which the inhibition in experiment [4] was more than 90%; in experiment [2], more than 50%; in experiment [5], more than 90%; in experiment [3] it was more than 95%.
With `COc1cc2nc(-c3cccc(O)c3)nc(NCCSC[C@H]3O[C@@H](n4cnc5c(N)ncnc54)[C@H](O)[C@@H]3O)c2cc1OC`, the inhibition in experiment [1] was less than 30%; in experiment [3], less than 50%. Moreover, in experiment [2], the inhibition entry was “inactive”.
For `COc1cc2nc(-c3ccc(C(F)(F)F)cc3)nc(NCCSC[C@H]3O[C@@H](n4cnc5c(N)ncnc54)[C@H](O)[C@@H]3O)c2cc1OC`, in that order: less than 30%, less than 50% and “inactive”.
As for `Nc1ncnc2c1ncn2[C@@H]1O[C@H](CSCCNC(=O)NCc2ccc(-c3ccccc3O)cc2)[C@@H](O)[C@H]1O`, the inhibition is 3% in experiment [1], less than 50% in experiment [2], 27% in experiment [5] and less than 30% in experiment [3].
For `Nc1ncnc2c1ncn2[C@@H]1O[C@H](CSCCCNC(=O)NCCc2ccccc2)[C@@H](O)[C@H]1O`, in that order: 3%, less than 50%, 27% and less than 30%.
Consider `Nc1ncnc2c1ncn2[C@@H]1O[C@H](CSCCNC(=O)NC2CCCCC2)[C@@H](O)[C@H]1O`, for which the inhibition is 3% in experiment [1], less than 50% in experiment [2], 27% in experiment [5] and less than 30% in experiment [3].
Consider `CCNC(=O)NCCSC[C@H]1O[C@@H](n2cnc3c(N)ncnc32)[C@H](O)[C@@H]1O`, for which the inhibition was 3% in experiment [1], less than 50% in experiment [2], 27% in experiment [5] and less than 30% in experiment [3].
As to `Nc1ncnc2c1ncn2[C@@H]1O[C@H](CSCCNC(=O)NCCCc2ccccc2)[C@@H](O)[C@H]1O`, the inhibition in experiment [1] is 3%; in experiment [2], less than 50%; in experiment [5], 27%; in experiment [3], less than 30%.
As for `Nc1ncnc2c1ncn2[C@@H]1O[C@H](CSCCNC(=O)Nc2ccc(Cl)cc2)[C@@H](O)[C@H]1O`, the inhibition in experiment [1] was 3%; in experiment [2] it was less than 50%; in experiment [5], 27%; in experiment [3], less than 30%.
Take `Nc1ncnc2c1ncn2[C@@H]1O[C@H](CSCCCNC(=O)NCc2ccccc2)[C@@H](O)[C@H]1O`: the inhibition in experiment [1] was 3%; in experiment [2], less than 50%; in experiment [5], 27%; in experiment [3], less than 30%.
Take `Nc1ncnc2c1ncn2[C@@H]1O[C@H](CSCCCNC(=O)NCCCc2ccccc2)[C@@H](O)[C@H]1O`: the inhibition in experiment [1] is 3%; in experiment [2], less than 50%; in experiment [5], 27%; in experiment [3], less than 30%.
In the case of `Nc1ncnc2c1ncn2[C@@H]1O[C@H](CSCCNC(=O)Nc2ccccc2)[C@@H](O)[C@H]1O`, the inhibition in experiment [1] is more than 50%; in experiment [2], less than 50%; in experiment [5] it was 27%; in experiment [3] it was less than 30%.
`Nc1ncnc2c1ncn2[C@@H]1O[C@H](CSCCNC(=O)NCCc2ccccc2)[C@@H](O)[C@H]1O`: the inhibition in experiment [1] was 3%; in experiment [2], less than 50%; in experiment [5] it was 27%; in experiment [3], less than 30%.
As to `COc1cc2nc(-c3ccc(F)c(O)c3)nc(NCCSC[C@H]3O[C@@H](n4cnc5c(N)ncnc54)[C@H](O)[C@@H]3O)c2cc1OC`, the results for the inhibition in experiment [1] and in experiment [3] were less than 30% and less than 50%, respectively. The inhibition result in experiment [2] was “inactive”.
On to `Nc1ncnc2c1ncn2[C@@H]1O[C@H](CSCCNC(=O)Nc2ccc(F)cc2)[C@@H](O)[C@H]1O`, for which the inhibition in experiment [1] was more than 50%; in experiment [2] it was less than 50%; in experiment [5] it was 27%; in experiment [3] it was less than 30%.
Take `Nc1ncnc2c1ncn2[C@@H]1O[C@H](CSCCNC(=O)NCc2ccc3cnccc3c2)[C@@H](O)[C@H]1O`: the inhibition was 3% in experiment [1], less than 50% in experiment [2], 27% in experiment [5] and less than 30% in experiment [3].
As to `COc1cc2nc(-c3ccc(N)cc3)nc(NCCSC[C@H]3O[C@@H](n4cnc5c(N)ncnc54)[C@H](O)[C@@H]3O)c2cc1OC`, the inhibition in experiment [1] was less than 30%; in experiment [3] it was less than 50%. The inhibition entry in experiment [2] is “inactive”.
For the molecule `COc1cc2nc(-c3ccoc3)nc(NCCSC[C@H]3O[C@@H](n4cnc5c(N)ncnc54)[C@H](O)[C@@H]3O)c2cc1OC`, the inhibition in experiment [1] was less than 30%; in experiment [3], less than 50%. Besides, the inhibition result in experiment [2] is “inactive”.
Consider `Nc1ncnc2c1ncn2[C@@H]1O[C@H](CSCCNC(=O)NCc2ccc(-c3cc[nH]n3)cc2)[C@@H](O)[C@H]1O`, for which the inhibition in experiment [1] was 3%; in experiment [2], less than 50%; in experiment [5] it was 27%; in experiment [3] it was less than 30%.
In the case of `COc1cc2nc(-c3cccc(F)c3)nc(NCCSC[C@H]3O[C@@H](n4cnc5c(N)ncnc54)[C@H](O)[C@@H]3O)c2cc1OC`, the inhibition in experiment [1] is less than 30%; in experiment [3], less than 50%. Further, the inhibition entry in experiment [2] is “inactive”.
Turning to `Nc1ncnc2c1ncn2[C@@H]1O[C@H](CSCCNC(=O)Nc2ccccc2Br)[C@@H](O)[C@H]1O`, the inhibition in experiment [1] was more than 50%; in experiment [2], less than 50%; in experiment [5], 27%; in experiment [3], less than 30%.
Turning to `Nc1ncnc2c1ncn2[C@@H]1O[C@H](CSCCNC(=O)NCc2ccc(-c3cn[nH]c3)cc2)[C@@H](O)[C@H]1O`, the inhibition in experiment [1] was 3%; in experiment [2], less than 50%; in experiment [5], 27%; in experiment [3], less than 30%.

The values above are taken from ChEMBL document CHEMBL5608259 (J Med Chem, 2024).
